# Measured values taken from US11932612B1, “6-(5-(3-fluorophenyl)-4-phenyl-4H-1,2,4-triazol-3-ylthio)hexanoic acid as an antimicrobial compound” (KING FAISAL UNIVERSITY, priority 2023, dated 2024).
# Experiments:
# Staphylococcus aureus = experiment: Agar plate disc-diffusion, antibacterial inhibition zone; type: cell-based; conditions: nutrient agar, 37° C., 48 h, DMSO zone subtracted
# Method: (§1) The agar plate disc-diffusion method was applied. […] The discs were then placed onto the surface of agar plates (nutrient agar for bacteria and Sabouraud's dextrose agar for fungi) seeded with the test organism. Each plate contained 15 mLof the agar medium, previously seeded with 0.2 mL of the broth culture of each organism pregrown for 18 h. The plates were incubated at 37° C. for 48 h, and 72 h for fungi. The inhibition zones was measured in mm. Discs impregnated with DMSO were used as a control, and its inhibition zone was subtracted from the tested compound actual inhibition zone.
# Bacillus cereus = experiment: as above; type: cell-based; conditions: nutrient agar, 37° C., 48 h, DMSO zone subtracted
# Method: as §1
# Pseudomonas aeruginosa = experiment: as above; type: cell-based; conditions: nutrient agar, 37° C., 48 h, DMSO zone subtracted
# Method: as §1
# Escherichia coli = experiment: as above; type: cell-based; conditions: nutrient agar, 37° C., 48 h, DMSO zone subtracted
# Method: as §1
# [1] = system: Chrysosporium keratinophilum; experiment: Agar plate disc-diffusion, antifungal inhibition zone; type: cell-based; conditions: Sabouraud's dextrose agar, 37° C., 72 h, DMSO zone subtracted
# Method: as §1
# Aspergillus flavus = experiment: as above; type: cell-based; conditions: Sabouraud's dextrose agar, 37° C., 72 h, DMSO zone subtracted
# Method: as §1
# [2] = A = concentration of comp. = 10,000 μL
# [3] = B = concentration of comp. = 30,000 μL
# [4] = C = concentration of comp. = 50,000 μL
smiles,measurement,setting,value
"O=C(O)CCCCCSc1nnc(-c2cccc(F)c2)n1-c1ccccc1 [III, 6-(5-(3-fluorophenyl)-4-phenyl-4H-1,2,4-triazol-3-ylthio)hexanoic acid]","inhibition zone, Staphylococcus aureus",Staphylococcus aureus; [2],22 mm
same,"inhibition zone, Staphylococcus aureus",Staphylococcus aureus; [3],25 mm
same,"inhibition zone, Staphylococcus aureus",Staphylococcus aureus; [4],30 mm
same,"inhibition zone, Bacillus Cereus",Bacillus cereus; [2],26 mm
same,"inhibition zone, Bacillus Cereus",Bacillus cereus; [3],30 mm
same,"inhibition zone, Bacillus Cereus",Bacillus cereus; [4],41 mm
same,"inhibition zone, Pseudomonas aeruginosa",Pseudomonas aeruginosa; [2],24 mm
same,"inhibition zone, Pseudomonas aeruginosa",Pseudomonas aeruginosa; [3],26 mm
same,"inhibition zone, Pseudomonas aeruginosa",Pseudomonas aeruginosa; [4],45 mm
same,"inhibition zone, Escherichia coli",Escherichia coli; [2],27 mm
same,"inhibition zone, Escherichia coli",Escherichia coli; [3],34 mm
same,"inhibition zone, Escherichia coli",Escherichia coli; [4],56 mm
same,"inhibition zone, Chrysosporium keratinophilum",[1]; [2],25 mm
same,"inhibition zone, Chrysosporium keratinophilum",[1]; [3],28 mm
same,"inhibition zone, Chrysosporium keratinophilum",[1]; [4],46 mm
same,"inhibition zone, Aspergillus flavus",Aspergillus flavus; [2],21 mm
same,"inhibition zone, Aspergillus flavus",Aspergillus flavus; [3],27 mm
same,"inhibition zone, Aspergillus flavus",Aspergillus flavus; [4],37 mm
same,melting point,,164 °C
